Measured values taken from ChEMBL document CHEMBL4184318, “Identification of Fast-Acting 2,6-Disubstituted Imidazopyridines That Are Efficacious in the in Vivo Humanized Plasmodium falciparum NODscidIL2Rγ null Mouse Model of Malaria” (J Med Chem, 2018).
≈ marks a conversion by molar mass, not a printed value.

Key:
[1] = Kinetic solubility of the compound in phosphate buffered saline at pH 6.5 after 20 hrs by shake flask method; assay type: physicochemical; details: read-out: Kinetic_solubility
[2] = Kinetic solubility of the compound in FaSSIF at pH 6.5 after 20 hrs by shake flask method; assay type: physicochemical; details: read-out: Kinetic_solubility
[3] = Kinetic solubility of the compound in HCl at pH 2 after 20 hrs by shake flask method; assay type: physicochemical; details: read-out: Kinetic_solubility
[4] = Drug metabolism in iv or po dosed Sprague-Dawley rat plasma assessed as oxidation of pyridine ring by LC-MS/MS method; assay type: ADME, organism-based; details: in vivo
[5] = Drug metabolism in iv or po dosed Sprague-Dawley rat plasma assessed as oxidation of phenyl ring by LC-MS/MS method; assay type: ADME, organism-based; details: in vivo

SMILES | solubility kinetic at 20 h [1] | solubility kinetic at 20 h [2] | solubility kinetic at 20 h [3] | Drug metabolism [4] | Drug metabolism [5]
Fc1ccc(-c2nc3cnc(Nc4cc(C(F)(F)F)ccn4)cc3[nH]2)cc1F | < 5 µM | 50 to 100 µM (≈ 19.6 to 39.1 µg/mL) | < 5 µM |  | 
CNC(=O)c1ccc(Nc2cc3[nH]c(-c4ccc(C(F)(F)F)nc4)nc3cn2)nc1 | < 5 µM | < 5 µM | 170 µM (≈ 70.3 µg/mL) |  | 
CC1(c2nc3cnc(Nc4ccc(C(F)(F)F)cn4)cc3[nH]2)CC1 | 188 µM (≈ 62.7 µg/mL) | 179 µM (≈ 59.7 µg/mL) | 200 µM (≈ 66.7 µg/mL) |  | 
Fc1ccc(-c2nc3cnc(Nc4ccccn4)cc3[nH]2)cc1F | < 5 µM | 50 to 100 µM (≈ 16.2 to 32.3 µg/mL) | 125 µM (≈ 40.4 µg/mL) |  | 
COC(=O)c1ccc(Nc2cc3[nH]c(-c4ccc(C(F)(F)F)nc4)nc3cn2)nc1 | 12 µM (≈ 4.97 µg/mL) | 16 µM (≈ 6.63 µg/mL) | 182 µM (≈ 75.4 µg/mL) |  | 
FC(F)(F)c1cccc(-c2nc3cnc(Nc4ccc(N5CCOCC5)cn4)cc3[nH]2)c1 | < 5 µM | 35 µM (≈ 15.4 µg/mL) | 87 µM (≈ 38.3 µg/mL) |  | 
FC(F)(F)c1cccc(-c2nc3cnc(Nc4cnccn4)cc3[nH]2)c1 | < 5 µM |  | 155 µM (≈ 55.2 µg/mL) |  | 
FC(F)(F)c1ccc(-c2nc3cnc(Nc4ccccn4)cc3[nH]2)cn1 | < 5 µM | 50 to 100 µM (≈ 17.8 to 35.6 µg/mL) | 180 µM (≈ 64.1 µg/mL) |  | 
Fc1ccc(Nc2cc3[nH]c(-c4ccc(F)c(F)c4)nc3cn2)nc1 | < 5 µM | 50 to 100 µM (≈ 17.1 to 34.1 µg/mL) | 42 µM (≈ 14.3 µg/mL) | Metabolite_Detected | Metabolite_Notdetected
FC(F)(F)c1ccc(Nc2cc3[nH]c(C4CC4)nc3cn2)nc1 | < 5 µM | 123 µM (≈ 39.3 µg/mL) | 198 µM (≈ 63.2 µg/mL) |  | 
O=C(NC1CC1)c1ccc(Nc2cc3[nH]c(-c4ccc(C(F)(F)F)nc4)nc3cn2)nc1 | < 5 µM | < 5 µM | 99 µM (≈ 43.5 µg/mL) |  | 
COc1ccnc(Nc2cc3[nH]c(-c4cccc(C(F)(F)F)c4)nc3cn2)c1 | < 5 µM |  | < 5 µM |  | 
NC(=O)c1ccc(Nc2cc3[nH]c(-c4cccc(C(F)(F)F)c4)nc3cn2)nc1 | < 5 µM | < 5 µM | < 5 µM |  | 
O=C(c1ccc(Nc2cc3[nH]c(-c4ccc(C(F)(F)F)nc4)nc3cn2)nc1)N1CCCC1 | < 5 µM | < 5 µM | 196 µM (≈ 88.9 µg/mL) |  | 
FC(F)(F)c1cccc(-c2nc3cnc(Nc4ccncn4)cc3[nH]2)c1 | < 5 µM |  | 200 µM (≈ 71.3 µg/mL) |  | 
FC(F)(F)c1ccc(Nc2cc3[nH]c(-c4cccc(C(F)(F)F)c4)nc3cn2)nc1 | < 5 µM | 50 to 100 µM (≈ 21.2 to 42.3 µg/mL) | < 5 µM | Metabolite_Detected | Metabolite_Notdetected
O=C(O)c1ccc(Nc2cc3[nH]c(-c4cccc(C(F)(F)F)c4)nc3cn2)nc1 | 6 µM (≈ 2.4 µg/mL) | 6 µM (≈ 2.4 µg/mL) | < 5 µM |  | 
COc1cccc(Nc2cc3[nH]c(-c4cccc(C(F)(F)F)c4)nc3cn2)n1 | < 5 µM |  | 85 µM (≈ 32.8 µg/mL) |  | 
FC1(F)CC(c2nc3cnc(Nc4ccc(C(F)(F)F)cn4)cc3[nH]2)C1 | 118 µM (≈ 43.6 µg/mL) | 161 µM (≈ 59.5 µg/mL) | 181 µM (≈ 66.8 µg/mL) |  | 
FC1(F)CCC(c2nc3cnc(Nc4ccc(C(F)(F)F)cn4)cc3[nH]2)C1 (configuration not stated) | 120 µM (≈ 46 µg/mL) | 163 µM (≈ 62.5 µg/mL) | 185 µM (≈ 70.9 µg/mL) |  | 
FC(F)(F)c1ccc(Nc2cc3[nH]c(C4CCOCC4)nc3cn2)nc1 | 155 µM (≈ 56.3 µg/mL) | 168 µM (≈ 61 µg/mL) | 196 µM (≈ 71.2 µg/mL) |  | 
COc1ccc(Nc2cc3[nH]c(-c4cccc(C(F)(F)F)c4)nc3cn2)nc1 | < 5 µM |  | < 5 µM |  | 

The next lines start with the values.

solubility kinetic at 20 h [1] | solubility kinetic at 20 h [2] | solubility kinetic at 20 h [3] | Drug metabolism [4] | Drug metabolism [5] | SMILES
< 5 µM | 50 to 100 µM (≈ 19.6 to 39.1 µg/mL) | 6 µM (≈ 2.35 µg/mL) |  |  | Fc1ccc(-c2nc3cnc(Nc4ccc(C(F)(F)F)cn4)cc3[nH]2)cc1F
< 5 µM |  | 155 µM (≈ 55.2 µg/mL) |  |  | FC(F)(F)c1cccc(-c2nc3cnc(Nc4ncccn4)cc3[nH]2)c1
< 5 µM | 50 to 100 µM (≈ 19.6 to 39.1 µg/mL) | < 5 µM |  |  | Fc1cnc(Nc2cc3[nH]c(-c4cccc(C(F)(F)F)c4)nc3cn2)c(F)c1
33 µM (≈ 15.5 µg/mL) | 58 µM (≈ 27.2 µg/mL) | 200 µM (≈ 93.9 µg/mL) |  |  | O=C(c1ccc(Nc2cc3[nH]c(-c4ccc(C(F)(F)F)nc4)nc3cn2)nc1)N1CCOCC1
< 5 µM | 50 to 100 µM (≈ 18.7 to 37.3 µg/mL) | < 5 µM |  |  | Fc1ccc(Nc2cc3[nH]c(-c4cccc(C(F)(F)F)c4)nc3cn2)nc1
< 5 µM | < 5 µM | 8 µM (≈ 3.2 µg/mL) |  |  | O=C(O)c1ccc(Nc2cc3[nH]c(-c4ccc(C(F)(F)F)nc4)nc3cn2)nc1
< 5 µM |  | 161 µM (≈ 57.4 µg/mL) |  |  | FC(F)(F)c1cccc(-c2nc3cnc(Nc4cccnn4)cc3[nH]2)c1
< 5 µM | 60 µM (≈ 24 µg/mL) | < 5 µM |  |  | O=C(O)c1ccnc(Nc2cc3[nH]c(-c4cccc(C(F)(F)F)c4)nc3cn2)c1
< 5 µM | 50 to 100 µM (≈ 18.7 to 37.3 µg/mL) | 7 µM (≈ 2.61 µg/mL) |  |  | Fc1ccc(-c2nc3cnc(Nc4ccccn4)cc3[nH]2)cc1C(F)(F)F
118 µM (≈ 39.3 µg/mL) | 156 µM (≈ 52 µg/mL) | 186 µM (≈ 62 µg/mL) |  |  | FC(F)(F)c1ccc(Nc2cc3[nH]c(CC4CC4)nc3cn2)nc1
< 5 µM |  | 26 µM (≈ 9.65 µg/mL) |  |  | FC(F)(F)Oc1ccc(-c2nc3cnc(Nc4ccccn4)cc3[nH]2)cc1
< 5 µM | 50 to 100 µM (≈ 19 to 38 µg/mL) | < 5 µM |  |  | N#Cc1ccc(Nc2cc3[nH]c(-c4cccc(C(F)(F)F)c4)nc3cn2)nc1
< 5 µM | 104 µM (≈ 44.7 µg/mL) | 200 µM (≈ 85.9 µg/mL) |  |  | FC(F)(F)c1ccc(Nc2cc3[nH]c([C@H]4CC[C@H](C(F)(F)F)CC4)nc3cn2)nc1
166 µM (≈ 58 µg/mL) | 180 µM (≈ 62.9 µg/mL) | 200 µM (≈ 69.9 µg/mL) |  |  | FC(F)(F)c1ccc(Nc2cc3[nH]c(C4CCOC4)nc3cn2)nc1 (configuration not stated)
< 5 µM | < 5 µM | < 5 µM |  |  | O=C(O)c1ccnc(Nc2cc3[nH]c(-c4ccc(C(F)(F)F)nc4)nc3cn2)c1
168 µM (≈ 78.7 µg/mL) | 161 µM (≈ 75.4 µg/mL) | 200 µM (≈ 93.7 µg/mL) |  |  | O=C(c1ccc(Nc2cc3[nH]c(-c4ccc(C(F)(F)F)nc4)nc3cn2)nc1)N1CCNCC1
7 µM (≈ 2.57 µg/mL) | 9 µM (≈ 3.31 µg/mL) | 11 µM (≈ 4.04 µg/mL) |  |  | O=C(O)c1ccc(Nc2cc3[nH]c(-c4ccc(F)c(F)c4)nc3cn2)nc1
 | < 5 µM | 190 µM (≈ 86.2 µg/mL) |  |  | CN1CCN(c2ccc(Nc3cc4[nH]c(-c5cccc(C(F)(F)F)c5)nc4cn3)nc2)CC1
< 5 µM | 50 to 100 µM (≈ 21.2 to 42.3 µg/mL) | 51 µM (≈ 21.6 µg/mL) |  |  | FC(F)(F)c1cccc(-c2nc3cnc(Nc4cccc(C(F)(F)F)n4)cc3[nH]2)c1
10 µM (≈ 3.55 µg/mL) |  | 200 µM (≈ 71.1 µg/mL) |  |  | FC(F)(F)c1cccc(-c2nc3cnc(Nc4ccncc4)cc3[nH]2)c1
170 µM (≈ 59 µg/mL) | 170 µM (≈ 59 µg/mL) | 200 µM (≈ 69.5 µg/mL) |  |  | Fc1ccc(Nc2cc3[nH]c(C4CCC(F)(F)CC4)nc3cn2)nc1
< 5 µM | 127 µM (≈ 54.4 µg/mL) | 164 µM (≈ 70.3 µg/mL) |  |  | CCOC(=O)c1ccc(Nc2cc3[nH]c(-c4ccc(C(F)(F)F)nc4)nc3cn2)nc1
< 5 µM |  | 116 µM (≈ 44.7 µg/mL) |  |  | COc1cccnc1Nc1cc2[nH]c(-c3cccc(C(F)(F)F)c3)nc2cn1
< 5 µM | < 5 µM | < 5 µM |  |  | FC(F)(F)c1cccc(-c2nc3cnc(Nc4cc(-c5nnn[nH]5)ccn4)cc3[nH]2)c1
< 5 µM | < 5 µM | < 5 µM |  |  | FC(F)(F)c1cccc(-c2nc3cnc(Nc4ccc(-c5nnn[nH]5)cn4)cc3[nH]2)c1
< 5 µM | 50 to 100 µM (≈ 17.1 to 34.1 µg/mL) | 166 µM (≈ 56.7 µg/mL) |  |  | Fc1ccnc(Nc2cc3[nH]c(-c4ccc(F)c(F)c4)nc3cn2)c1
